Test results from patent US4338330A, “Benzimidazole derivatives, their use, and compositions containing these derivatives” (Continental Pharma, priority 1979, dated 1982).
“Also recorded” adds a separate entry of the source. Counter-ions that a name gives are not always drawn.

Assays:
[1] = molecular target: T1, β1 cardiac receptors (Cavia porcellus, UniProt H0W3H1); assay: β-lytic activity: inhibition of chronotropic response to noradrenaline of auricles (pA2); parameters: species or system guinea pig
T1 construct: chronotropic response to noradrenaline of guinea pig auricles; from tissue; host or cells: guinea pig auricles (chronotropic response); electrically stimulated guinea pig left auricles (inotropic response)
T1 sequence (H0W3H1 1-470): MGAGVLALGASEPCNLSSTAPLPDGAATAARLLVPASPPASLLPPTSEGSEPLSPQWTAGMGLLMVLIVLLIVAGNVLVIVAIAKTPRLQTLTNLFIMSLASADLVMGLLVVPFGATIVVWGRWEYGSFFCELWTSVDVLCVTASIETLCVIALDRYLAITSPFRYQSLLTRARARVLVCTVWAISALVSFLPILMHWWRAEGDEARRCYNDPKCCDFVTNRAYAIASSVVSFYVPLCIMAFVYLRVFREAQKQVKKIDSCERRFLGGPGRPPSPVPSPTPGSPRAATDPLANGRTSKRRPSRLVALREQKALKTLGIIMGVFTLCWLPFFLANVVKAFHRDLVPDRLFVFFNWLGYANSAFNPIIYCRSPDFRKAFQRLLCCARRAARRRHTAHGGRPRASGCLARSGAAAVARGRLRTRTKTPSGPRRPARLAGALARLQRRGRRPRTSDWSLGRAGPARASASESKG
Procedure: (§1) The effect on β1 cardiac receptors is measured by inhibition of the chronotropic response to noradrenaline of guinea pig auricles and of the inotrope response to isoproterenol of guinea pig left auricles which were electrically stimulated. The cardioselectivity is appreciated by measuring the antagonist effect at the level of β2 receptors of the guinea pig trachea. To this end, a tracheal chain is contracted by a maximum concentration of histamine and inhibition of relaxation by isoproterenol is measured. The values calculated for cardioselectivity are obtained by considering the difference between pA2 values of the chronotrope response and the relaxation on the one hand (1st column) and of the inotrope response and relaxation on the other hand (2nd column).

[2] = molecular target: T1, β1 cardiac receptors; assay: β-lytic activity: inhibition of inotrope response to isoproterenol of electrically stimulated left auricles (pA2); parameters: species or system guinea pig
Procedure: as §1

[3] = tested on: β1 cardiac receptors versus β2 tracheal receptors; assay: Cardioselectivity (auricles versus trachea); parameters: species or system guinea pig; conditions: for times more active on β cardiac receptors than on β2 receptors: from difference of pA2 on auricles and trachea
Procedure: as §1, with “column). For these various experiences, pA2 is calculated according to the Van Rossum method (Arch. Inern. Pharmacodyn., 143, 299-330, 1963).” for “column).”

[4] = LD50 in mice, oral (Lichtfield and Wilcoxon method); format: in vivo; conditions: mouse, in vivo, po, read-out: LD50
Procedure: LD50 were determined according to the Lichtfield and Wilcoxon method (J. Pharmacol. Exp. Ther. 96, 99, 1949) and expressed in mg/kg. The products were administered to mice orally.

[5] = Antihypertensive activity, oral, unanesthetized spontaneously hypertensive rats; format: in vivo; conditions: 60 mg/kg oral; for Antihypertensive activity (score): spontaneously hypertensive rats; for Antihypertensive activity (index): systolic pressure difference (cmHg) every 30 min multiplied by time coefficient 1 to 6
Procedure: […] Only rats having a systolic pressure of 180 to 220 mm Hg are used. Two rats are used by product. The treatments are administered without the knowledge of the person making the measure.
The antihypertensive effects were recorded according to a score followed by an index. The scoring system is as follows.
The index is calculated by multiplying the systolic pressure difference (cmHg) measured every 30 minutes after the treatment, by a coefficient of 1 to 6 corresponding to times of 30 to 180 minutes.

[6] = tested on: guinea pig ileum contractions induced by histamine; assay: Antispasmodic activity against ileum contractions induced by histamine
Procedure: (§2) The antispasmodic activity of the studied substances was examined against guinea pig ileum contractions induced by histamine and acetylcholine.
(§3) These experiences allow to make it obvious an antihistaminic, anticholinergic or musculotrope activity. The response to the contracting agent (sub-maximum concentration) is obtained every 5 minutes before and after injection of increasing concentrations of tested products (10^-7 M to 10^-4 M). The inhibition percentage under the influence of tested products is calculated and the theoretical concentration giving 50% of inhibition is graphically determined for each experience. These values are expressed in -log CI50 (M).

[7] = tested on: guinea pig ileum contractions induced by acetylcholine; assay: Antispasmodic activity against ileum contractions induced by acetylcholine
Procedure: as §2, §3

[8] = Peripheral vasodilator activity, anesthetized dog, femoral arterial circulation; format: in vivo; conditions: 30 μg/kg injected directly
Procedure: The peripheral vasodilator activity was measured on anesthetized dog at the level of femoral arterial circulation. To this end, the femoral artery the collaterals of which have been ligated is perfused at constant rate with blood taken from aorta. The perfusion pressure measured at the level of the femoral artery thus varies as a function of the resistance of the perfused area. The tested products and the corresponding solvents are directly injected at the dose of 30 μg/kg. The cardiac output being maintained constant, a vasodilation is thus measured by a decrease of the perfusion pressure. The latter is scored in comparison with the action of papaverine, considered as a reference and injected one time by group of 4 products. When interesting, the products are tested with other doses under the same conditions.
The vasodilator activity is appreciated as follows: […]

[9] = tested on: platelet agglutination; assay: Inhibition of platelet agglutination in plasma (turbidimetric method, Thrombofax); format: cell-based; conditions: plasma rich in platelets, preincubated 4 minutes
Procedure: The measure of platelet agglutination inhibition was made according to the turbidimetric method of G. V. R. Born and M. J. Cross (J. Physiol., 168, 178, […]). The plasma rich in platelets was preincubated for 4 minutes before addition of the inducing agent, namely Thrombofax. The variations of turbidity were recorded for a period of 10 minutes with a "Chronolog" agglutinometer. The inhibition of the maximum amplitude of agglutination was measured.

[10] = tested on: isolated guinea pig auricles; assay: Chronotrope effect of the substance on isolated auricles; conditions: 10^-6 M, 20 minutes, Tyrode, 29° C.
Procedure: The β-lytic effect was searched on the chronotropic response to noradrenaline of isolated guinea pig auricles. Auricles were incubated for 20 minutes in a Tyrode solution at 29° C. in the presence of the substance to be tested at the concentration of 10^-6 M. A positive (+) or negative (-) chronotrope effect of the substance was noted using the following scores: […]

[11] = tested on: chronotropic response to noradrenaline of isolated guinea pig auricles; assay: β-lytic effect on the chronotropic response to noradrenaline of isolated auricles
Procedure: The β-lytic effect was searched on the chronotropic response to noradrenaline of isolated guinea pig auricles. Auricles were incubated for 20 minutes in a Tyrode solution at 29° C. in the presence of the substance to be tested at the concentration of 10^-6 M. A positive (+) or negative (-) chronotrope effect of the substance was noted using the following scores:
Then, the chronotrope effect of cumulative increasing concentrations of noradrenaline was recorded. The pD2 (-log CE50) value was calculated. A score of β-lytic activity of the substance was given as follows:
If the score at concentration of 10^-6 M was 3 or 4, the effect of the substance was examined at concentration of 10^-7 M and a score was recorded according to the same procedure.

[12] = molecular target: T2, β2 receptors of the guinea pig trachea (Cavia porcellus, UniProt Q8K4Z4); assay: Antagonist effect on relaxation of trachea by isoproterenol (pA2); conditions: histamine-contracted tracheal chain, read-out: β-lytic activity, pA2 trachea relaxation (converted)
T2 construct: β2 receptors of the guinea pig trachea; from tissue; host or cells: guinea pig tracheal chain contracted by histamine
T2 sequence (Q8K4Z4 whole entry): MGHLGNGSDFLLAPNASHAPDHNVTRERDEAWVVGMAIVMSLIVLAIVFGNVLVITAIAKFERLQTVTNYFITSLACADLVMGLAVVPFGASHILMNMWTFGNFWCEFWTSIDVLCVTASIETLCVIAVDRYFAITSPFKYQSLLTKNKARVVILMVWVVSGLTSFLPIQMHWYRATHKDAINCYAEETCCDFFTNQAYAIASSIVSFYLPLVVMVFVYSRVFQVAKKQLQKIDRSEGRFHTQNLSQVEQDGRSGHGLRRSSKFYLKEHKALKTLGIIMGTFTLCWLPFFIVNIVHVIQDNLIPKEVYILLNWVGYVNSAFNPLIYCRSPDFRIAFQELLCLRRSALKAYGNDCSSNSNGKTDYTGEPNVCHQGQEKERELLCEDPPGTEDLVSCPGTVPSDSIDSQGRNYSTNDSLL
Procedure: as §1

SMILES | Kb [1] [nM] | Kb [2] [nM] | times more active on β cardiac receptors than on β2 receptors [3] | LD50 [4] [mg/kg] | Antihypertensive activity (score) [5] | Antispasmodic activity, Hist. (-log CI50 (M)) [6] | Antispasmodic activity, Ac. Chol. (-log CI50 (M)) [7] | Peripheral vasodilator activity [8] | Inhibition of platelet agglutination [9] | Antihypertensive activity (index) [5] | Chronotrope effect (score) [10] | β-lytic effect (score) ([11]; 10^-6 M) | β-lytic effect (score) ([11]; 10^-7 M) | Activity on β cardiac receptors (in words) [1] | Kb ([1]; noradrenaline, read-out: β-lytic activity, pA2 auricles chronotrope response (converted)) [nM] | Kb ([2]; isoproterenol, electrically stimulated left auricles, read-out: β-lytic activity, pA2 auricles inotrope response (converted)) [nM] | Kb [12] [nM] | Cardioselectivity ([3]; Table III, from pA2 auricles and trachea) | Cardioselectivity (in words) ([3]; guinea pig auricles vs trachea)
CC(C)NCC(O)COc1ccc(CC(N)=O)cc1 (stereo not drawn) [Atenolol, reference compound] | 44.7 | 129 | 50 times | – | – | – | – | – | – | – | – | – | – | – | – | – | – | – | –
CCCCCCCCNCC(O)COc1ccc(-c2nc3ccccc3[nH]2)cc1 (stereo not drawn) [Compound 2, 2-[4-(3-n-octylamino-2-hydroxypropoxy)phenyl]benzimidazole] | – | – | – | > 300 | 0 (reduction <10 mm Hg) | 6.46 -log CI50 (M) | 6.64 -log CI50 (M) | active | active | – | – | – | – | – | – | – | – | – | –
OC(CNCCOc1ccccc1)COc1ccc(-c2nc3ccccc3[nH]2)cc1 (stereo not drawn) [Compound 3, 2-{4-[3-(2-phenoxyethylamino)-2-hydroxypropoxy]phenyl}benzimidazole] | – | – | – | > 3000 | +++ (reduction of 30 to 50 mm Hg) | 6.52 -log CI50 (M) | 6.43 -log CI50 (M) | active | – | 50 | 0 (if the frequency modification was comprised between +6 and -6) | 2 (if 6.40≥pD2 ≥6.01) | – | – | – | – | – | – | –
COc1ccc(CCNCC(O)COc2ccc(-c3nc4ccccc4[nH]3)cc2)cc1OC (stereo not drawn) [Compound 5, 2-[[4-{3-[2-(3,4-dimethoxyphenyl)ethylamino]-2-hydroxypropoxy}phenyl]]benzimidazole] | – | – | more than 5600 times | > 3000 | +++ (reduction of 30 to 50 mm Hg) | 5.80 -log CI50 (M) | 5.69 -log CI50 (M) | – | – | 34 | 0 (if the frequency modification was comprised between +6 and -6) | 3 (if 6.00≥pD2 ≥5.51) | 2 (if 6.40≥pD2 ≥6.01) | active β-agents on β cardiac receptors | 21.4 | 39.8 | > 100000 | > 1.91 | important cardioselectivity; also recorded: much higher than that of metopropol and atenolol
OC(CNCCCCc1ccccc1)COc1ccc(-c2nc3ccccc3[nH]2)cc1 (stereo not drawn) [Compound 6] | – | – | – | > 3000 | 0 (reduction <10 mm Hg) | 6.89 -log CI50 (M) | 7.12 -log CI50 (M) | active | – | – | -1 | 0 (if pD2 ≥6.81) | – | – | – | – | – | – | –
CC(CCc1ccccc1)NCC(O)COc1ccc(-c2nc3ccccc3[nH]2)cc1 (stereo not drawn) [Compound 7] | – | – | – | > 3000 | + (reduction of 10 to 20 mm Hg) | 6.25 -log CI50 (M) | 6.23 -log CI50 (M) | active | – | 18 | 0 (if the frequency modification was comprised between +6 and -6) | 0 (if pD2 ≥6.81) | – | – | – | – | – | – | –
Cc1ccc2[nH]c(-c3ccc(OCC(O)CNC(C)C)cc3)nc2c1 (stereo not drawn) [Compound 14, 2-[4-(3-isopropylamino-2-hydroxypropoxy)phenyl]-5(6)-methylbenzimidazole (hydrochloride)] | – | – | – | 1450 | ++++ (reduction>50 mm Hg) | 4.85 -log CI50 (M) | 5.10 -log CI50 (M) | – | – | 83 | 1 | 4 (if pD2 ≤5.50) | 2 (if 6.40≥pD2 ≥6.01) | – | – | – | – | – | –
Cc1cc2nc(-c3ccc(OCC(O)CNC(C)C)cc3)[nH]c2cc1C (stereo not drawn) [Compound 15] | – | – | – | 1450 | ++++ (reduction>50 mm Hg) | 5.45 -log CI50 (M) | 5.38 -log CI50 (M) | – | – | 110 | 0 (if the frequency modification was comprised between +6 and -6) | 3 (if 6.00≥pD2 ≥5.51) | 1 (if 6.80≥pD2 ≥6.41) | – | – | – | – | – | –
CC(C)NCC(O)COc1ccc(-c2nc3cc(Cl)ccc3[nH]2)cc1 (stereo not drawn) [Compound 16] | – | – | – | 1100 | ++++ (reduction>50 mm Hg) | 5.58 -log CI50 (M) | 5.25 -log CI50 (M) | – | – | 90 | 0 (if the frequency modification was comprised between +6 and -6) | 3 (if 6.00≥pD2 ≥5.51) | 1 (if 6.80≥pD2 ≥6.41) | – | – | – | – | – | –
OC(CNCCCCSc1ccccc1)COc1ccc(-c2nc3ccccc3[nH]2)cc1 (stereo not drawn) [Compound 23] | – | – | – | – | 0 (reduction <10 mm Hg) | 6,05 -log CI50 (M) | 5,74 -log CI50 (M) | active | – | – | 0 (if the frequency modification was comprised between +6 and -6) | 0 (if pD2 ≥6.81) | – | – | – | – | – | – | –
COCCc1ccc(OCC(O)CNC(C)C)cc1 (stereo not drawn) [Metroprolol, reference compound] | – | – | 65 times | – | – | – | – | – | – | – | – | – | – | – | – | – | – | – | –
